Assay results from patent publication US20260137677A1, “PROTACS USEFUL AGAINST THE MAIN PROTEASE SARS-COV-2” (Tocris Cookson Limited, priority 2022, published 2026).

What was measured:
[1] = target: T1, recombinant SARS-CoV-2 main protease (Mpro) (Severe acute respiratory syndrome coronavirus 2, UniProt P0DTD1); experiment: biochemical; conditions: FRET assay, Mpro 50 nM, substrate 10 μM
T1 construct: the main protease (Mpro; also called 3CLpro) which has an essential role in processing the polyproteins

[2] = tested on: SARS-CoV-2 (SARS-CoV2/ZG/297-20) in Vero E6 cells; experiment: microbe, parasite or virus in culture; type: cell-based; conditions: for inhibition at 10 µM / inhibition at 50 µM: Severe acute respiratory syndrome coronavirus 2, Vero C1008, 72 h; for inhibition at 10 µM: read-out: Antiviral Activity 10 uM; for inhibition at 50 µM: read-out: Antiviral Activity 50 uM; for EC50: Severe acute respiratory syndrome coronavirus 2, Vero C1008, Vero E6 infected with SARS-CoV-2 at an MOI of 0.05, read-out: EC50 in antiviral assay

Row | SMILES | IC50 [1] | inhibition at 10 µM [2] | inhibition at 50 µM [2] | EC50 [2]
1 | O=C1CCC(N2C(=O)c3cccc(NCCNC(=O)[C@H](NC(=O)[C@@H](c4cccnc4)N(C(=O)c4ccco4)c4ccc(-c5ccccc5)cc4)c4ccccc4)c3C2=O)C(=O)N1 (mixture of isomers) [TS449F1] | < 0.1 µM | < 0% | < 0% | 
2 | O=C1CCC(N2C(=O)c3cccc(NCCCCNC(=O)[C@H](NC(=O)[C@@H](c4cccnc4)N(C(=O)c4ccco4)c4ccc(-c5ccccc5)cc4)c4ccccc4)c3C2=O)C(=O)N1 (mixture of isomers) [TS451F1] | < 10 µM | < 0% | < 0% | 
3 | O=C1CCC(N2C(=O)c3cccc(NCCOCCOCCOCCNC(=O)[C@H](NC(=O)[C@@H](c4cccnc4)N(C(=O)c4ccco4)c4ccc(-c5ccccc5)cc4)c4ccccc4)c3C2=O)C(=O)N1 (mixture of isomers) [TS455F1] | < 0.1 µM | < 0% | < 0% | 
4 | O=C1CCC(N2C(=O)c3cccc(NCCCNC(=O)[C@@H](NC(=O)[C@@H](c4cccnc4)N(C(=O)c4ccco4)c4ccc(-c5ccccc5)cc4)c4ccccc4)c3C2=O)C(=O)N1 (single isomer, unassigned) [TS450F1] | < 1 µM | < 0% | < 0% | 
5 | O=C1CCC(N2C(=O)c3cccc(NCCOCCNC(=O)[C@@H](NC(=O)[C@@H](c4cccnc4)N(C(=O)c4ccco4)c4ccc(-c5ccccc5)cc4)c4ccccc4)c3C2=O)C(=O)N1 (single isomer, unassigned) [TS453F1b] | < 1 µM | < 0% | < 0% | 
6 | O=C1CCC(N2C(=O)c3cccc(NCCOCCOCCNC(=O)C(NC(=O)C(c4cccnc4)N(C(=O)c4ccco4)c4ccc(-c5ccccc5)cc4)c4ccccc4)c3C2=O)C(=O)N1 (single isomer, unassigned) [TS454F1] | < 1 µM | < 0% | < 0% | 
7 | O=C1CCC(N2C(=O)c3ccc(NCCOCCNC(=O)[C@H](NC(=O)[C@@H](c4cccnc4)N(C(=O)c4ccco4)c4ccc(-c5ccccc5)cc4)c4ccccc4)cc3C2=O)C(=O)N1 (single isomer, unassigned) [TS462] | < 1 µM | < 25% | < 25% | 
8 | O=C1CCC(N2C(=O)c3ccc(NCCOCCOCCNC(=O)[C@H](NC(=O)[C@@H](c4cccnc4)N(C(=O)c4ccco4)c4ccc(-c5ccccc5)cc4)c4ccccc4)cc3C2=O)C(=O)N1 (single isomer, unassigned) [TS464] | < 1 µM | < 0% | < 25% | 
9 | O=C1CCC(N2C(=O)c3ccc(NCCOCCOCCOCCNC(=O)[C@H](NC(=O)[C@@H](c4cccnc4)N(C(=O)c4ccco4)c4ccc(-c5ccccc5)cc4)c4ccccc4)cc3C2=O)C(=O)N1 (single isomer, unassigned) [TS465] | < 0.1 µM | < 25% | < 50% | 
10 | O=C1CCC(N2C(=O)c3ccc(N4CCN(C(=O)[C@H](NC(=O)[C@@H](c5cccnc5)N(C(=O)c5ccco5)c5ccc(-c6ccccc6)cc5)c5ccccc5)CC4)cc3C2=O)C(=O)N1 (single isomer, unassigned) [TS466] | < 0.1 µM | < 0% | < 0% | 
11 | O=C1CCC(N2C(=O)c3cc(F)c(N4CCN(C(=O)[C@H](NC(=O)[C@@H](c5cccnc5)N(C(=O)c5ccco5)c5ccc(-c6ccccc6)cc5)c5ccccc5)CC4)cc3C2=O)C(=O)N1 (single isomer, unassigned) [TS467] | < 0.1 µM | < 25% | < 25% | 
12 | O=C1CCC(N2C(=O)c3ccc(N4CCN(CC5CCN(C(=O)[C@H](NC(=O)[C@@H](c6cccnc6)N(C(=O)c6ccco6)c6ccc(-c7ccccc7)cc6)c6ccccc6)CC5)CC4)cc3C2=O)C(=O)N1 (single isomer, unassigned) [TS470] | < 0.1 µM | < 25% | < 50% | 
13 | O=C1CCC(N2C(=O)c3cc(F)c(N4CCN(CC5CCN(C(=O)[C@H](NC(=O)[C@@H](c6cccnc6)N(C(=O)c6ccco6)c6ccc(-c7ccccc7)cc6)c6ccccc6)CC5)CC4)cc3C2=O)C(=O)N1 (single isomer, unassigned) [TS471] | < 1 µM | < 25% | < 25% | 
14 | O=C(COc1ccc(C2CCC(=O)NC2=O)cc1)NCCNC(=O)[C@H](NC(=O)[C@@H](c1cccnc1)N(C(=O)c1ccco1)c1ccc(-c2ccccc2)cc1)c1ccccc1 (single isomer, unassigned) [TS476] | < 0.1 µM | < 0% | < 0% | 
15 | O=C(COc1ccc(C2CCC(=O)NC2=O)cc1)NCCCCNC(=O)[C@H](NC(=O)[C@@H](c1cccnc1)N(C(=O)c1ccco1)c1ccc(-c2ccccc2)cc1)c1ccccc1 (single isomer, unassigned) [TS477] | < 0.1 µM | < 0% | < 0% | 
16 | O=C1CCC(N2C(=O)c3cccc(OCCCCCCC(=O)Nc4cccn([C@@H](CC5CC5)C(=O)N[C@@H](C[C@@H]5CCNC5=O)C(=O)C(=O)NCc5ccccc5)c4=O)c3C2=O)C(=O)N1 (some centres unmarked) [BT150] | < 1 µM | < 25% | < 25% | 
17 | O=C1CCC(N2C(=O)c3cccc(OCCCCCCCC(=O)Nc4cccn([C@@H](CC5CC5)C(=O)N[C@@H](C[C@@H]5CCNC5=O)C(=O)C(=O)NCc5ccccc5)c4=O)c3C2=O)C(=O)N1 (some centres unmarked) [BT152] | < 1 µM | < 25% | < 50% | 
18 | O=C1CCC(N2C(=O)c3cccc(OCCCCCCNC(=O)c4ccc5cncc(N6C(=O)NC7(CC(c8ccccc8Cl)C7)C6=O)c5c4)c3C2=O)C(=O)N1 (centres unmarked) [Compound C10778L, 4-(2-(2-chlorophenyl)-6,8-dioxo-5,7-diazaspiro[3.4]octan-7-yl)-N-(6-((2-(2,6-dioxopiperidin-3-yl)-1,3-dioxoisoindolin-4-yl)oxy)hexyl)isoquinoline-6-carboxamide] | < 0.1 µM | < 25% | < 25% | 
19 | O=C1CCC(N2C(=O)c3cccc(OCCNC(=O)c4ccc5cncc(N6C(=O)NC7(CC(c8ccccc8Cl)C7)C6=O)c5c4)c3C2=O)C(=O)N1 (centres unmarked) [Compound C10778P, 4-(2-(2-chlorophenyl)-6,8-dioxo-5,7-diazaspiro[3.4]octan-7-yl)-N-(2-((2-(2,6-dioxopiperidin-3-yl)-1,3-dioxoisoindolin-4-yl)oxy)ethyl)isoquinoline-6-carboxamide] | < 0.1 µM | > 75% | > 75% | 4.9 µM
20 | O=C1CCC(N2C(=O)c3ccc(NCCCCCCNC(=O)c4ccc5cncc(N6C(=O)NC7(CC(c8ccccc8Cl)C7)C6=O)c5c4)cc3C2=O)C(=O)N1 (centres unmarked) [Compound C10778Q, 4-(2-(2-chlorophenyl)-6,8-dioxo-5,7-diazaspiro[3.4]octan-7-yl)-N-(6-((2-(2,6-dioxopiperidin-3-yl)-1,3-dioxoisoindolin-5-yl)amino)hexyl)isoquinoline-6-carboxamide] | < 1 µM | < 0% | < 25% | 
21 | O=C(COc1ccc(C2CCC(=O)NC2=O)cc1)NCCCCCNC(=O)c1ccc2cncc(N3C(=O)NC4(CC(c5ccccc5Cl)C4)C3=O)c2c1 (centres unmarked) [Compound C10778R, 4-(2-(2-chlorophenyl)-6,8-dioxo-5,7-diazaspiro[3.4]octan-7-yl)-N-(5-(2-(4-(2,6-dioxopiperidin-3-yl)phenoxy)acetamido)pentyl)isoquinoline-6-carboxamide] | < 0.1 µM | > 75% | > 75% | 4.9 µM
